Source: ChEMBL document CHEMBL5046296 (J Med Chem, 2022)
pIC50, pKi: −log10 of the molar value. Converted amounts (≈) assume the structure as drawn.

What was measured:
[1] = Solubility of the compound in PEG400; type: physicochemical
[2] = AUC (infinity) in mouse at 2 mg/kg, iv; type: ADME, organism-based; design: time infinity, route intravenous, dose 2 mg/kg; conditions: in vivo
[3] = Tmax in rat at 3 mg/kg, po; type: ADME, organism-based; conditions: in vivo
[4] = Tmax in mouse at 3 mg/kg, po; type: ADME, organism-based; conditions: in vivo
[5] = Tmax in monkey at 3 mg/kg, po; type: ADME, organism-based, Macaca mulatta; conditions: rhesus monkey, in vivo
[6] = biological target: T1, AP2-associated protein kinase 1 (Homo sapiens, UniProt Q2M2I8); test: Inhibition of GST-Xa tagged human AAK1 (30 to 330 residues) expresssed in bacteria using (5-FAM)-Aha-KEEQSQITSQVTGQIGWR-NH2 peptide as substrate incubated for 3 hrs in presence of ATP by electrophoretic analysis
T1 sequence (Q2M2I8 whole entry, the tested form may be a part): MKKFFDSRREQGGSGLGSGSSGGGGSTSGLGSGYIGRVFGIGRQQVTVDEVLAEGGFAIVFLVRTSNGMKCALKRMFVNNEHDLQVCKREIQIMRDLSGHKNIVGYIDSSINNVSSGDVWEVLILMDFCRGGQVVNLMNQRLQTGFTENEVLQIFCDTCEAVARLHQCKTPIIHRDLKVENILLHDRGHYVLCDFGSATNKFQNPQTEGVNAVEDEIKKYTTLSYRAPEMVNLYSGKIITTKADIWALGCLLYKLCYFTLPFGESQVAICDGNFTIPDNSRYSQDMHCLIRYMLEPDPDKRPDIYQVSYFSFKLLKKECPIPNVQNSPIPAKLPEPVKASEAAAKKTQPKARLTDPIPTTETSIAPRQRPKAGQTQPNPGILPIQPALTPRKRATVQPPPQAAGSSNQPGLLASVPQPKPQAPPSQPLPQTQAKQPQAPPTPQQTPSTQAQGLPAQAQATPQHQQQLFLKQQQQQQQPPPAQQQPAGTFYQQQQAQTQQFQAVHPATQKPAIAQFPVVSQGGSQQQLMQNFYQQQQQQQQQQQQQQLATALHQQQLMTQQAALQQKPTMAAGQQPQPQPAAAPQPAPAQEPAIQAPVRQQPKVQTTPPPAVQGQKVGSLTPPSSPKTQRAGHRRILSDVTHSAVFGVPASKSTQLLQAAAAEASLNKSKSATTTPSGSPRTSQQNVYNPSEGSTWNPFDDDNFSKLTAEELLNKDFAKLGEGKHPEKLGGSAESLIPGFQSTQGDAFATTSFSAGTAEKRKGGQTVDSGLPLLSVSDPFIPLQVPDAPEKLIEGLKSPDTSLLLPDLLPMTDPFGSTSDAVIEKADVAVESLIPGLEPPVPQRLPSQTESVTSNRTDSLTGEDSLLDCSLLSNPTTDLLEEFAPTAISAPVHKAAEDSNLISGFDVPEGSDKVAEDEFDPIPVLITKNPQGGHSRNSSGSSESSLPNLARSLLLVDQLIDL

[7] = Displacement of 3H-LP-927443 from AAK1 in mouse brain membrane homogenate assessed as inhibition constant at 1 uM incubated for 1 hr by liquid scintillation counter analysis; type: cell membranes
[8] = biological target: T1, AP2-associated protein kinase 1; test: Inhibition of […] in HEK293F cells assessed as reduction in phospho mu2 formation incubated for 3 hrs by Western blot analysis; type: cell-based
[9] = Permeability of compound at pH 5.5 measured after 4 hrs by PAMPA assay; type: ADME; conditions: read-out: permeability
[10] = Permeability across apical to basolateral side in human Caco-2 cells at 3 uM measured after 2 hrs by LC-MS/MS analysis; type: ADME, cell-based; conditions: read-out: permeability
[11] = Permeability across basolateral to apical side in human Caco-2 cells at 3 uM measured after 2 hrs by LC-MS/MS analysis; type: ADME, cell-based; conditions: read-out: permeability
[12] = Protein binding in dog plasma assessed as unbound fraction at 10 uM incubated for 5 hrs by LC-MS/MS analysis; type: ADME, cell-free, Canis lupus familiaris
[13] = Metabolic stability in rat liver microsomes assessed as half life; type: ADME, Microsome
[14] = Metabolic stability in dog liver microsomes assessed as half life; type: ADME, Canis lupus familiaris, Microsome
Cytochrome P450 2D6 = Cytochrome P450 2D6 (Homo sapiens, UniProt P10635); test: Inhibition of CYP2D6 (unknown origin); type: ADME
Chain of Cytochrome P450 2D6 (P10635 whole entry): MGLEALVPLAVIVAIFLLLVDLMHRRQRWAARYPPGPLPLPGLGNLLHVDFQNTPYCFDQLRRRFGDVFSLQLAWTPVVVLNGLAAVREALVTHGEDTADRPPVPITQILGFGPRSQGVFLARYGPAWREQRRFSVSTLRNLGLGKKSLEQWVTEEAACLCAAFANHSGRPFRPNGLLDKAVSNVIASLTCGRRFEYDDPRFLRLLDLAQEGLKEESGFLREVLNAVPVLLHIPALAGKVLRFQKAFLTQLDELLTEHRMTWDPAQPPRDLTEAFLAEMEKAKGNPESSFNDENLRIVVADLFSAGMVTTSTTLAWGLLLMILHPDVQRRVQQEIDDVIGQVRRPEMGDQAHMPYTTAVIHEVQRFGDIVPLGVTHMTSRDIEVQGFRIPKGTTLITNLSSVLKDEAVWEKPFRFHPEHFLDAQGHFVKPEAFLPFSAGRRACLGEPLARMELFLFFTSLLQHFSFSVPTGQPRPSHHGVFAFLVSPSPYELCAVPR

Cytochrome P450 3A4 = Cytochrome P450 3A4 (Homo sapiens, UniProt P08684); test: Time dependent inhibition of CYP3A4 (unknown origin) using TST as substrate measured at 30 mins; type: ADME
Chain of Cytochrome P450 3A4 (P08684 whole entry): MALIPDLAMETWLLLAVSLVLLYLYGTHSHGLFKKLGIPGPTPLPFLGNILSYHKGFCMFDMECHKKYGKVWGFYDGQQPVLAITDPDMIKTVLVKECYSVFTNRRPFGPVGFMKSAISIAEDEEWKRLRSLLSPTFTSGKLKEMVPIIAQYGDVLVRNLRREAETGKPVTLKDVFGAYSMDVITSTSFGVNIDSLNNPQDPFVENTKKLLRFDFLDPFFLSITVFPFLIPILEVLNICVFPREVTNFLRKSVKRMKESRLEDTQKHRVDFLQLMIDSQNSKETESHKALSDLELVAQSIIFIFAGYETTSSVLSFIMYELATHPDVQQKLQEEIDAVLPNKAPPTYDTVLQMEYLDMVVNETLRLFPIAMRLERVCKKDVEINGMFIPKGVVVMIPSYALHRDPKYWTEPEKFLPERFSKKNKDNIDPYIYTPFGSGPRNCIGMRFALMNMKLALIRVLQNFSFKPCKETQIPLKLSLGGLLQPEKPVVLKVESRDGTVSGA

[15] = biological target: Voltage-gated inwardly rectifying potassium channel KCNH2 (Homo sapiens, UniProt Q12809); test: Inhibition of human ERG by patch clamp assay; type: toxicity
[16] = biological target: Hepatic sodium/bile acid cotransporter (Homo sapiens, UniProt Q14973); test: Inhibition of NTCP (unknown origin)
Chain of Hepatic sodium/bile acid cotransporter (Q14973 whole entry): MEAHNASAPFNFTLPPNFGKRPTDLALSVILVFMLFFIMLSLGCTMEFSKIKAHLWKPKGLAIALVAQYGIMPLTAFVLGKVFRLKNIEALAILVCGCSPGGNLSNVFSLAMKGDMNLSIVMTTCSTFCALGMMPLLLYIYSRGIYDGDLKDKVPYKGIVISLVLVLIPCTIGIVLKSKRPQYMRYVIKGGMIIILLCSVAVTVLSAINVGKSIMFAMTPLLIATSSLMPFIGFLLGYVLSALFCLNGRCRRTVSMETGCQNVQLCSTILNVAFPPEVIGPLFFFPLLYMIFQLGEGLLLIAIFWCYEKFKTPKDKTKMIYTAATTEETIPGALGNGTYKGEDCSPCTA

Bile salt export pump = Bile salt export pump (Homo sapiens, UniProt O95342); test: Inhibition of BSEP (unknown origin)
Chain of Bile salt export pump (O95342 whole entry): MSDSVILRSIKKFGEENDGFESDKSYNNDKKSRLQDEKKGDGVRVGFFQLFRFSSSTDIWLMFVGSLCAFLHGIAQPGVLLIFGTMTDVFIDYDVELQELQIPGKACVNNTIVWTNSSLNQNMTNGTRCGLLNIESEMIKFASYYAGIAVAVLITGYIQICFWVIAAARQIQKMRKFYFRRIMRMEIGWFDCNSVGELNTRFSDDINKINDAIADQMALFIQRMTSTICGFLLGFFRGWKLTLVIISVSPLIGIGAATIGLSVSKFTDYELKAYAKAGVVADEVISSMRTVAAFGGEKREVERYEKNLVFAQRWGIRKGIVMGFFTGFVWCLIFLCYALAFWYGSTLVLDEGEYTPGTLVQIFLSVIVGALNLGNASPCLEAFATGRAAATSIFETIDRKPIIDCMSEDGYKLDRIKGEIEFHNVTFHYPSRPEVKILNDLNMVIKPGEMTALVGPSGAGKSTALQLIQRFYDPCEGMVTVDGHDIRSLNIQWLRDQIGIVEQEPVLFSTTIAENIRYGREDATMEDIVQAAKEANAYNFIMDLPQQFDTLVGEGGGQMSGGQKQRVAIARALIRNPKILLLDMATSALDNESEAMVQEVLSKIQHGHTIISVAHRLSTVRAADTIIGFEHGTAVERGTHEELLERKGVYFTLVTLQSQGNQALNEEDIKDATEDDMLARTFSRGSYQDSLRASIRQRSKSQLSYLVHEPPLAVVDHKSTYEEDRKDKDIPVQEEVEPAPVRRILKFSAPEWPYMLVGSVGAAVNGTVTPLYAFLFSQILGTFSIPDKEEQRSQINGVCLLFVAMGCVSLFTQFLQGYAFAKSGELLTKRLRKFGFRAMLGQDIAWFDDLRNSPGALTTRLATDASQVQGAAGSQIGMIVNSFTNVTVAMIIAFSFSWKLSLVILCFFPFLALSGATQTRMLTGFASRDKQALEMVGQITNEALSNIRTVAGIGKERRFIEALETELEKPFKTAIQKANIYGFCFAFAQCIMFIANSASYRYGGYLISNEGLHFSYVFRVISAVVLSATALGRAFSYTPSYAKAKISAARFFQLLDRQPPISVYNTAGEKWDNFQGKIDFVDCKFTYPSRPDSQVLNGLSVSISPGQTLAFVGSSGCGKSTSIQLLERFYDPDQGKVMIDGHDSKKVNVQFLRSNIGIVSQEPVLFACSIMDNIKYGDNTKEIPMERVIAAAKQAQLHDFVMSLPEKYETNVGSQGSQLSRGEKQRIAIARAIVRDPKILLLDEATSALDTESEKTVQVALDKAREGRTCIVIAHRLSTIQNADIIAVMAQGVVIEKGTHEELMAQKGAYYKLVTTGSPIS

[17] = biological target: Solute carrier family 22 member 6 (Homo sapiens, UniProt Q4U2R8); test: Inhibition of OAT1 (unknown origin)
Chain of Solute carrier family 22 member 6 (Q4U2R8 whole entry): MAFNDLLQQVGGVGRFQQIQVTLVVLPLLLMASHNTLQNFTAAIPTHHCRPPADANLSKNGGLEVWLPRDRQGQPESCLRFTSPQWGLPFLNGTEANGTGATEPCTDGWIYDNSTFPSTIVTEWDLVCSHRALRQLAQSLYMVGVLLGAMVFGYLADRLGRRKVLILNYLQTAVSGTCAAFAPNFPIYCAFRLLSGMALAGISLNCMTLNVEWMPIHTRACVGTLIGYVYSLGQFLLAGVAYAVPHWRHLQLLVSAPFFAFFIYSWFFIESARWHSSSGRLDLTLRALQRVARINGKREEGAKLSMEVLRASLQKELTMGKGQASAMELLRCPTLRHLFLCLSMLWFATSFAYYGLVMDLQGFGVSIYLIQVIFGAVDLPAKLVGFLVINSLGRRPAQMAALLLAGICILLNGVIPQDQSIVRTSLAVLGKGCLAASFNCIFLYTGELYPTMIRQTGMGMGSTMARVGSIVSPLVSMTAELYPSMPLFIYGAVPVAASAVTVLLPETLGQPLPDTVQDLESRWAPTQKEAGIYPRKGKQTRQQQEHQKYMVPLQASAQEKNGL

[18] = biological target: Broad substrate specificity ATP-binding cassette transporter ABCG2 (Homo sapiens, UniProt Q9UNQ0); test: Inhibition of BCRP (unknown origin)
Chain of Broad substrate specificity ATP-binding cassette transporter ABCG2 (Q9UNQ0 whole entry): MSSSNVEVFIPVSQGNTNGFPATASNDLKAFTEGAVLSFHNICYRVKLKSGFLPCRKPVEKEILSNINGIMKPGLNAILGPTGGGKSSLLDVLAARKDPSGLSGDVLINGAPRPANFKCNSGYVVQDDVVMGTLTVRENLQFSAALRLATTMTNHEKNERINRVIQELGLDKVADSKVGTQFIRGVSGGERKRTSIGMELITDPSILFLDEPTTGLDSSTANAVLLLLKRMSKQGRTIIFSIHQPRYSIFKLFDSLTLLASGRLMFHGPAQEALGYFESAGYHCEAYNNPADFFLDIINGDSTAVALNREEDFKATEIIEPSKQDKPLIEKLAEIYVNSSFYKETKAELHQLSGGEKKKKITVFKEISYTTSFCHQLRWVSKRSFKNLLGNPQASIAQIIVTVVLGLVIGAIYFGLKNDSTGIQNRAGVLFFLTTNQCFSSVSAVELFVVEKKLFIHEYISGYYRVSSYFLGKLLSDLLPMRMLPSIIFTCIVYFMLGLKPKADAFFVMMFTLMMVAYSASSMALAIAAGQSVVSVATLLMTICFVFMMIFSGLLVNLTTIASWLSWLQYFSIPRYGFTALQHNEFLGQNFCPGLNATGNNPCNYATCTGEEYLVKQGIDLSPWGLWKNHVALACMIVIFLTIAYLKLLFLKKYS

Homo sapiens = organism: Homo sapiens; test: Inhibition of sodium channel (unknown origin) at 10 uM at 4 Hz electrophysiological method relative to control
Rattus norvegicus [19] = test: Analgesic activity in streptozotocin induced diabetic peripheral neuropathic mechanical allodynia in overnight fasted Sprague-Dawley rat model assessed as reduction in pain response at 0.3 mg/kg, po measured after 5.5 hrs post treatment; type: functional; design: scale not given: the % may be the effect or the level left
[20] = Drug concentration in Sprague-Dawley rat spinal cord with CCI induced thermal hyperalgesia at 0.3 mg/kg, po measured at 5.75 hrs post dose; type: ADME, organism-based; conditions: read-out: Ct
Rattus norvegicus [21] = test: Analgesic activity in CCI induced thermal hyperalgesia Sprague-Dawley rat model assessed as efficacy at 0.1 mg/kg, po measured at 5.75 hrs post dose; type: functional
Rattus norvegicus [22] = test: Analgesic activity in CCI induced thermal hyperalgesia Sprague-Dawley rat model assessed as efficacy at 0.3 mg/kg, po measured at 5.75 hrs post dose; type: functional
[23] = Drug uptake in Spinal cord of CCI induced thermal hyperalgesia Sprague-Dawley rat model assessed as spinal occupancy at 0.3 mg/kg, po measured at 5.75 hrs post dose in presence of [3H]BMT-046091; type: ADME, organism-based; conditions: in vivo
[24] = Drug concentration in overnight fasted Sprague-Dawley rat spinal cord with streptozotocin induced diabetic peripheral neuropathic mechanical allodynia at 0.1 mg/kg, po measured at 5.5 hrs post dose; type: ADME, organism-based; conditions: read-out: Ct
[25] = Drug concentration in overnight fasted Sprague-Dawley rat spinal cord with streptozotocin induced diabetic peripheral neuropathic mechanical allodynia at 0.3 mg/kg, po measured at 5.5 hrs post dose; type: ADME, organism-based; conditions: read-out: Ct
[26] = Ratio of drug concentration in spinal cord to plasma of overnight fasted Sprague-Dawley rat model with streptozotocin induced diabetic peripheral neuropathic mechanical allodynia at 0.1 mg/kg, po measured at 5.5 hrs post dose; type: ADME, organism-based
Rattus norvegicus [27] = test: Analgesic activity in streptozotocin induced diabetic peripheral neuropathic mechanical allodynia in overnight fasted Sprague-Dawley rat model assessed as efficacy at 0.1 mg/kg, po measured at 5.5 hrs post dose; type: functional
Rattus norvegicus [28] = test: Analgesic activity in streptozotocin induced diabetic peripheral neuropathic mechanical allodynia in overnight fasted Sprague-Dawley rat model assessed as efficacy at 1 mg/kg, po measured at 5.5 hrs post dose; type: functional
[29] = Cmax in naive Sprague-Dawley rat plasma at 30 mg/kg, po measured at 5.25 hrs post dose; type: ADME, organism-based; design: route oral, time 5.25 hrs, dose 30 mg/kg
[30] = Drug concentration in naive Sprague-Dawley rat spinal cord at 3 mg/kg, po measured at 5.25 hrs post dose; type: ADME, organism-based; conditions: read-out: Ct
[31] = Cmax in dog at 3 mg/kg, po; type: ADME, organism-based, Canis lupus familiaris; design: route oral, dose 3 mg/kg; conditions: in vivo
[32] = Cmax in monkey at 3 mg/kg, po; type: ADME, organism-based, Macaca mulatta; design: route oral, dose 3 mg/kg; conditions: rhesus monkey, in vivo
[33] = AUC (infinity) in mouse at 3 mg/kg, po; type: ADME, organism-based; design: time infinity, route oral, dose 3 mg/kg; conditions: in vivo
[34] = AUC (infinity) in rat at 2 mg/kg, iv; type: ADME, organism-based; design: time infinity, route intravenous, dose 2 mg/kg; conditions: in vivo
[35] = AUC (infinity) in dog at 2 mg/kg, iv; type: ADME, organism-based, Canis lupus familiaris; design: time infinity, route intravenous, dose 2 mg/kg; conditions: in vivo
[36] = AUC (infinity) in monkey at 2 mg/kg, iv; type: ADME, organism-based, Macaca mulatta; design: time infinity, route intravenous, dose 2 mg/kg; conditions: rhesus monkey, in vivo
[37] = Apparent elimination half life in mouse at 2 mg/kg, iv; type: ADME, organism-based; conditions: in vivo, read-out: betat1/2(app) (converted)
[38] = Apparent elimination half life in dog at 2 mg/kg, iv; type: ADME, organism-based, Canis lupus familiaris; conditions: in vivo, read-out: betat1/2(app) (converted)
[39] = Apparent elimination half life in monkey at 2 mg/kg, iv; type: ADME, organism-based, Macaca mulatta; conditions: rhesus monkey, in vivo, read-out: betat1/2(app) (converted)
[40] = MRT in mouse at 2 mg/kg, iv; type: ADME, organism-based; conditions: in vivo
[41] = Clearance in mouse at 2 mg/kg, iv; type: ADME, organism-based; conditions: in vivo
[42] = Clearance in rat at 2 mg/kg, iv; type: ADME, organism-based; conditions: in vivo
[43] = Oral bioavailability in mouse at 3 mg/kg; type: ADME, organism-based; conditions: in vivo
[44] = Oral bioavailability in rat at 3 mg/kg; type: ADME, organism-based; conditions: in vivo
[45] = Oral bioavailability in dog at 3 mg/kg; type: ADME, organism-based, Canis lupus familiaris; conditions: in vivo
[46] = Oral bioavailability in monkey at 3 mg/kg; type: ADME, organism-based, Macaca mulatta; conditions: rhesus monkey, in vivo
[47] = Solubility of the compound in citrate at pH 4.4 using crystalline form of sample; type: physicochemical
[48] = Solubility of the compound in FeSSIF; type: physicochemical
[49] = Solubility of the compound in propylene glycol; type: physicochemical
[50] = Solubility of the compound in ethanol; type: physicochemical

SMILES: CC(C)C[C@](C)(N)COc1ccc(-c2ccnc(C(F)F)c2)nc1C(F)F [PILAVAPADIN]
- solubility [1]: > 50000 µg/mL
- AUC(0-inf) [2]: 6710 ng·h/mL
- Tmax [3]: 3 h
- Tmax [4]: 5 h
- Tmax [5]: 4 h
- pIC50 [6]: 8.70
- pKi [7]: 9.51
- pIC50 [8]: 8.70
- Papp at 4 h [9]: 60 ×10⁻⁶ cm/s
- Papp A→B at 2 h, 3 µM [10]: 19.9 ×10⁻⁶ cm/s
- Papp B→A at 2 h, 3 µM [11]: 13.8 ×10⁻⁶ cm/s
- fraction unbound at 5 h, 10 µM [12]: 0.04
- half-life [13]: > 2 h
- half-life [14]: 0.5 h
- pIC50 (Cytochrome P450 2D6): < 4.70
- pIC50 (Cytochrome P450 3A4): < 4.40
- pIC50 [15]: 5.85
- pIC50 [16]: < 4.52
- pIC50 (Bile salt export pump): < 4.52
- pIC50 [17]: < 4.52
- pIC50 [18]: 5.27
- inhibition (Homo sapiens): 61%
- Activity (Rattus norvegicus [19]): 20%
- concentration at 5.75 h [20]: 431 nM
- Efficacy (Rattus norvegicus [21]): 25%
- Efficacy (Rattus norvegicus [22]): 68%
- Occ [23]: 83%
- concentration at 5.5 h [24]: 75 nM
- concentration at 5.5 h [25]: 206 nM
- Kp at 5.5 h [26]: 13
- Efficacy (Rattus norvegicus [27]): 20%
- Efficacy (Rattus norvegicus [28]): 60%
- Cmax [29]: 1650 nM
- concentration at 5.25 h [30]: 3860 nM
- Cmax [31]: 200 ng/mL
- Cmax [32]: 20 ng/mL
- AUC(0-inf) [33]: 5780 ng·h/mL
- AUC(0-inf) [34]: 1180 ng·h/mL
- AUC(0-inf) [35]: 1210 ng·h/mL
- AUC(0-inf) [36]: 980 ng·h/mL
- half-life [37]: 44.2 h
- half-life [38]: 4.8 h
- half-life [39]: 5.7 h
- MRT [40]: 63.8 h
- clearance [41]: 5 mL/min/kg
- clearance [42]: 28.5 mL/min/kg
- bioavailability [43]: 100%
- bioavailability [44]: 50%
- bioavailability [45]: 87%
- bioavailability [46]: 11%
- solubility [47]: 1400 µg/mL (≈ 3.63 mM)
- solubility [48]: 840 µg/mL (≈ 2.18 mM)
- solubility [49]: > 50000 µg/mL
- solubility [50]: > 50000 µg/mL
